The source of these data is ChEMBL document CHEMBL4020841, “Structure Guided Lead Generation toward Nonchiral M. tuberculosis Thymidylate Kinase Inhibitors” (J Med Chem, 2018).

Active and inactive are the calls of the source. No cut-off for these calls is given here.

The assay has as its system Mycobacterium tuberculosis. Briefly: Antimicrobial activity against Mycobacterium tuberculosis H37Ra ATCC 25177 harboring pSMT1 luciferase reporter plasmid up to 64 uM after 7 days by luminometric method. The class given is functional. (Reporter assays use an easily measured gene product as a stand-in for the process of interest.)
Turning to `COc1ccc(CN2CCC(n3cc(C)c(=O)[nH]c3=O)CC2)cc1`, the result was inactive.
As to `Cc1cn(C2CCN(Cc3ccc(Oc4ccccc4)cc3)CC2)c(=O)[nH]c1=O`, the result was inactive.
In the case of `Cc1cn(C2CCN(Cc3ccc(N(C)C)cc3)CC2)c(=O)[nH]c1=O`, the result was inactive.
For the molecule `Cc1cn(C2CCN(Cc3cc4ccccc4o3)CC2)c(=O)[nH]c1=O`, the result was inactive.
In the case of `Cc1cn(C2CCN(Cc3cnc4ccccc4c3)CC2)c(=O)[nH]c1=O`, the result was inactive.
The result for `Cc1cn(C2CCN(CC3CCCCC3)CC2)c(=O)[nH]c1=O` reads “inactive”; that for `Cc1cn(C2CCN(CCc3cccc(Oc4ccccc4)c3)CC2)c(=O)[nH]c1=O`, “inactive”.
`Cc1cn(CC2CCN(Cc3cccc(Oc4ccccc4)c3)CC2)c(=O)[nH]c1=O`: the result was inactive.
Turning to `Cc1cn(C2CCN(Cc3cccc(Oc4ccccc4)c3)CC2)c(=O)[nH]c1=O`, the outcome was inactive.
For the molecule `Cc1cn(C2CCN(C(=O)c3ccc(Oc4ccccc4)cc3)CC2)c(=O)[nH]c1=O`, the result was inactive.
For the molecule `Cc1cn(C2CCN(Cc3ccc(C#N)cc3)CC2)c(=O)[nH]c1=O`, the result was inactive.
Under `Cc1cn(CC2CCN(Cc3ccc(Oc4ccccc4)cc3)CC2)c(=O)[nH]c1=O` stands “inactive”; under `Cc1cn(C2CN(Cc3ccc(Oc4ccccc4)cc3)C2)c(=O)[nH]c1=O`, “inactive”.
Turning to `Cc1cn(C2CN(CCCc3cccc(Oc4ccccc4)c3)C2)c(=O)[nH]c1=O`, the result was inactive.
`Cc1cn(C2CCN(Cc3cc4ccccc4cn3)CC2)c(=O)[nH]c1=O`: the result was inactive.
The result for `Cc1cn(C2CCN(C(=O)c3cccc(Oc4ccccc4)c3)CC2)c(=O)[nH]c1=O` reads “inactive”; that for `Cc1cn(C2CCN(Cc3ccc(Cl)cc3)CC2)c(=O)[nH]c1=O`, “inactive”; that for `Cc1cn(C2CCN(Cc3cccnc3)CC2)c(=O)[nH]c1=O`, “inactive”.
With `Cc1cn(C2CCN(Cc3ccc(C(=O)O)cc3)CC2)c(=O)[nH]c1=O`, the outcome was inactive.
As for `Cc1cn(C2CCN(Cc3ccncc3)CC2)c(=O)[nH]c1=O`, the result was inactive.
Consider `Cc1cccc(CN2CCC(n3cc(C)c(=O)[nH]c3=O)CC2)c1`, for which the outcome was inactive.
As to `Cc1ccc(CN2CCC(n3cc(C)c(=O)[nH]c3=O)CC2)cc1`, the result was inactive.
`Cc1cn(C2CCN(Cc3ccccc3)CC2)c(=O)[nH]c1=O`: the outcome was inactive.
In the case of `Cc1cn(C2CCN(Cc3cc(Oc4ccccc4)c4ccc(Cl)cc4n3)CC2)c(=O)[nH]c1=O`, the outcome was inactive.
The result for `Cc1cn(C2CCN(Cc3nccc4ccccc34)CC2)c(=O)[nH]c1=O` reads “inactive”; that for `Cc1cn(C2CCN(Cc3cccc4ccccc34)CC2)c(=O)[nH]c1=O`, “inactive”.
Regarding `Cc1cn(C2CCN(Cc3ccccn3)CC2)c(=O)[nH]c1=O`, the outcome was inactive.
The result for `Cc1cn(C2CCN(Cc3ccco3)CC2)c(=O)[nH]c1=O` reads “inactive”; that for `Cc1cn(C2CN(Cc3cccc(Oc4ccccc4)c3)C2)c(=O)[nH]c1=O`, “inactive”.
The result for `Cc1cn(C2CCN(Cc3cncc4ccccc34)CC2)c(=O)[nH]c1=O` reads “inactive”; that for `Cc1cn(C2CCN(Cc3ccc4ccccc4c3)CC2)c(=O)[nH]c1=O`, “inactive”; that for `Cc1cn(C2CCN(Cc3cccc(C(=O)O)n3)CC2)c(=O)[nH]c1=O`, “inactive”.
Under `Cc1cn(C2CN(CCc3cccc(Oc4ccccc4)c3)C2)c(=O)[nH]c1=O` stands “inactive”; under `Cc1cn(C2CCN(Cc3ccnc4ccccc34)CC2)c(=O)[nH]c1=O`, “inactive”; under `Cc1cn(C2CCN(Cc3ccoc3)CC2)c(=O)[nH]c1=O`, “inactive”.
